Experimental data reported in the supplement of paper PMC10307832.

Key:
Assay in all cases: relative viability (nuclei count vs DMSO), 5 days (fraction); higher = more cells survive
[1] = compound: C1=CC=C2C(=C1)N=C(S2)C(C#N)C3=NC(=NC=C3)NCCC4=CN=CC=C4 + C[C@@H](Oc1cc(-c2cnn(C3CCNCC3)c2)cnc1N)c1c(Cl)ccc(F)c1Cl [Crizotinib] (partner 1 µM)
Procedure, shortened: (§1)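 Relative viability equals treated-well nuclei counts divided by vehicle-well nuclei counts. Counts came from 4× images of lung cancer cell lines grown in 1536-well plates for 5 days after pin-tool dosing on the day after seeding. Dosing used one drug alone or a fixed anchor-drug dose plus five library-drug doses (not always all listed) in √10 steps, and values are medians of duplicate plates.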

NVP-TAE684 + AZD7762 = compound: COc1cc(N2CCC(N3CCN(C)CC3)CC2)ccc1Nc1ncc(Cl)c(Nc2ccccc2S(=O)(=O)C(C)C)n1 [NVP-TAE684] + NC(=O)Nc1cc(-c2cccc(F)c2)sc1C(=O)N[C@H]1CCCNC1 [AZD7762] (partner 0.2 µM)
Procedure, shortened: as §1

CUDC-101 + Alpelisib = compound: C#Cc1cccc(Nc2ncnc3cc(OC)c(OCCCCCCC(=O)NO)cc23)c1 [CUDC-101] + Cc1nc(NC(=O)N2CCC[C@H]2C(N)=O)sc1-c1ccnc(C(C)(C)C(F)(F)F)c1 [Alpelisib] (partner 2 µM)
Procedure, shortened: as §1

NVP-TAE684 + Linsitinib = compound: COc1cc(N2CCC(N3CCN(C)CC3)CC2)ccc1Nc1ncc(Cl)c(Nc2ccccc2S(=O)(=O)C(C)C)n1 [NVP-TAE684] + C[C@]1(O)C[C@@H](c2nc(-c3ccc4ccc(-c5ccccc5)nc4c3)c3c(N)nccn32)C1 [Linsitinib] (partner 1 µM)
Procedure, shortened: as §1

NVP-TAE684 + Luminespib = compound: COc1cc(N2CCC(N3CCN(C)CC3)CC2)ccc1Nc1ncc(Cl)c(Nc2ccccc2S(=O)(=O)C(C)C)n1 [NVP-TAE684] + CCNC(=O)c1noc(-c2cc(C(C)C)c(O)cc2O)c1-c1ccc(CN2CCOCC2)cc1 [Luminespib] (partner 0.01 µM)
Procedure, shortened: as §1

Cell Line | relative viability ([1]; first compound 0.005 µM) | relative viability ([1]; first compound 0.01581 µM) | relative viability ([1]; first compound 0.05 µM) | relative viability ([1]; first compound 0.1581 µM) | relative viability ([1]; first compound 0.5 µM) | relative viability (NVP-TAE684 + AZD7762; first compound 0.2 µM) | relative viability (NVP-TAE684 + AZD7762; first compound 0.6325 µM) | relative viability (NVP-TAE684 + AZD7762; first compound 2 µM) | relative viability (CUDC-101 + Alpelisib; first compound 0.01 µM) | relative viability (CUDC-101 + Alpelisib; first compound 0.03162 µM) | relative viability (CUDC-101 + Alpelisib; first compound 0.1 µM) | relative viability (CUDC-101 + Alpelisib; first compound 0.3162 µM) | relative viability (CUDC-101 + Alpelisib; first compound 1 µM) | relative viability (NVP-TAE684 + Linsitinib; first compound 0.2 µM) | relative viability (NVP-TAE684 + Linsitinib; first compound 2 µM) | relative viability (NVP-TAE684 + Luminespib; first compound 0.2 µM) | relative viability (NVP-TAE684 + Luminespib; first compound 0.6325 µM) | relative viability (NVP-TAE684 + Luminespib; first compound 2 µM) | relative viability (NVP-TAE684 + Linsitinib; first compound 0.6325 µM)
201T | 0.978 | 1.03 | 1.02 | 1.07 | 0.995 | 0.669 | 0.79 | 0.521 | 0.932 | 0.937 | 0.926 | 1.05 | 0.88 | 1.1 | 0.925 | 0.964 | 0.992 | 0.69 | 
A549 | 0.539 | 0.795 | 0.837 | 0.705 | 0.554 |  |  |  | 0.773 | 0.757 | 0.605 | 0.948 | 0.618 | 0.539 | 0.532 |  |  |  | 0.603
A-427 | 0.69 | 0.979 | 0.984 | 0.951 | 0.899 | 0.69 | 0.528 | 0.366 | 1.15 | 1.1 | 1.11 | 1.02 | 0.887 | 1.22 | 1.07 | 0.978 | 0.79 | 0.516 | 
ABC-1 | 1.05 | 1.1 | 0.941 | 1.21 | 0.925 | 0.917 | 0.524 | 0.472 | 1.15 | 1.07 | 0.819 | 0.609 | 0.572 | 0.825 | 0.358 | 0.405 | 0.264 | 0.381 | 0.742
BEN | 0.668 | 0.924 | 0.82 | 0.785 | 0.806 | 0.794 | 0.615 | 0.6 | 1.21 | 0.887 | 1.17 | 0.848 | 0.737 | 0.804 | 0.848 | 0.444 | 0.172 | 0.34 | 0.904
CAL-12T | 0.48 | 0.561 | 0.743 | 0.766 | 0.37 | 0.741 | 0.492 | 0.418 | 1.38 | 0.984 | 1.42 | 1.11 | 1.21 | 0.726 | 0.541 | 0.185 | 0.655 | 0.0938 | 0.767
COR-L23 | 0.6 | 0.596 | 0.728 | 0.653 | 0.568 |  |  |  | 0.968 | 0.753 | 0.661 | 0.617 | 0.349 | 0.871 | 0.419 | 0.909 | 0.457 | 0.152 | 0.937
COR-L 105 | 0.679 | 0.815 | 0.699 | 0.628 | 0.728 |  |  |  | 1.17 | 0.848 | 0.88 | 0.829 | 0.52 | 0.915 | 0.625 | 0.674 | 0.798 | 0.317 | 
Calu-6 | 0.479 | 0.771 | 0.831 | 0.907 | 0.638 |  |  |  | 1.02 | 0.939 | 0.986 | 1 | 0.763 | 0.805 | 0.634 |  |  |  | 0.935
